pIC50: −log10 of the molar value. A value given as a limit tells only on which side of the number the result lay.

The term pIC50 denotes the negative decadic logarithm of the IC50, by convention in mol/L. A lower pIC50 goes with a large IC50. Usually IC50 stands for the midpoint of a concentration-inhibition curve. Higher therefore signals weaker potency in that assay.

BRM, sequence (P51531 whole entry): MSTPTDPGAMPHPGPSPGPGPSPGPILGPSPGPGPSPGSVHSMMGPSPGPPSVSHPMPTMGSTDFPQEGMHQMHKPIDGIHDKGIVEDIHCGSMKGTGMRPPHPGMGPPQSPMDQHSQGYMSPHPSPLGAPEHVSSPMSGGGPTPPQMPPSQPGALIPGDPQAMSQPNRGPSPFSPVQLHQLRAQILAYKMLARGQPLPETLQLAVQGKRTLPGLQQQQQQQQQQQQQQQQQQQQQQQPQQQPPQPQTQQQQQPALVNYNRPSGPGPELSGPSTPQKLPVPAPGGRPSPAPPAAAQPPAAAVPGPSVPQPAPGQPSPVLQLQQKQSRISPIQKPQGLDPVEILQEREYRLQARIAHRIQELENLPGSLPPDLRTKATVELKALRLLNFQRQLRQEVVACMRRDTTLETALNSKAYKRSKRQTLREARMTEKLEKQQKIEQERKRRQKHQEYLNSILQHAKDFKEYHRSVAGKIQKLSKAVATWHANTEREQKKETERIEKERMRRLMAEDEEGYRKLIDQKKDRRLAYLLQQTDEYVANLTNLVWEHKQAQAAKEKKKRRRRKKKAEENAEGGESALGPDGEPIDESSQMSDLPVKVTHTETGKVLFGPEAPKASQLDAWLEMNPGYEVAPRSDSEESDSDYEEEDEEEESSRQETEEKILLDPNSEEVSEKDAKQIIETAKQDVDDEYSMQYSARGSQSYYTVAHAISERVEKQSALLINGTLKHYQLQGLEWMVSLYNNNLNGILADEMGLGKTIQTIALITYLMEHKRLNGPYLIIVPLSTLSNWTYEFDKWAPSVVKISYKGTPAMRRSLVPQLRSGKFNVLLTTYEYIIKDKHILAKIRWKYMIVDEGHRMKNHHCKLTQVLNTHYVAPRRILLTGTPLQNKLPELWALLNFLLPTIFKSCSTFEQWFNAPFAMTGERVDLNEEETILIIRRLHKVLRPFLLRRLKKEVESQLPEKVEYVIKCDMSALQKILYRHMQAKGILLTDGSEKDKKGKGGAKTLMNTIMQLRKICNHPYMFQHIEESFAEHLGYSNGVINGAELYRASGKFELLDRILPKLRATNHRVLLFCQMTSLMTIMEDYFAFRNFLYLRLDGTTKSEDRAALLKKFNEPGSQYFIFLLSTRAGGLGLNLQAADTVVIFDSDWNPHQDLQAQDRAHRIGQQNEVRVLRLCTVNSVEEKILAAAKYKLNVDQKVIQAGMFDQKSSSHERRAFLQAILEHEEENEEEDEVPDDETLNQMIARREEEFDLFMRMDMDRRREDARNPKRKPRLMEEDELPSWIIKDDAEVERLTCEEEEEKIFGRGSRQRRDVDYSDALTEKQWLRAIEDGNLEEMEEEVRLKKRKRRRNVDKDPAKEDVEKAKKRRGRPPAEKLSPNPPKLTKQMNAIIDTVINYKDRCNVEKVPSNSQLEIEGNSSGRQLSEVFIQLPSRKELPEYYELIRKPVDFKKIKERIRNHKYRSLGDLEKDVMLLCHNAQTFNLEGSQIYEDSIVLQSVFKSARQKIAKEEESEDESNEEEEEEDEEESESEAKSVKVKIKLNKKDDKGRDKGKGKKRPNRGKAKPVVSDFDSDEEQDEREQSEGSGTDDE

In the first test the target is BRG-1 (Homo sapiens, UniProt P51532). Briefly: ATPase catalytic activity assay (ADP-Glo), BRG-1.
BRG-1, sequence (P51532 whole entry): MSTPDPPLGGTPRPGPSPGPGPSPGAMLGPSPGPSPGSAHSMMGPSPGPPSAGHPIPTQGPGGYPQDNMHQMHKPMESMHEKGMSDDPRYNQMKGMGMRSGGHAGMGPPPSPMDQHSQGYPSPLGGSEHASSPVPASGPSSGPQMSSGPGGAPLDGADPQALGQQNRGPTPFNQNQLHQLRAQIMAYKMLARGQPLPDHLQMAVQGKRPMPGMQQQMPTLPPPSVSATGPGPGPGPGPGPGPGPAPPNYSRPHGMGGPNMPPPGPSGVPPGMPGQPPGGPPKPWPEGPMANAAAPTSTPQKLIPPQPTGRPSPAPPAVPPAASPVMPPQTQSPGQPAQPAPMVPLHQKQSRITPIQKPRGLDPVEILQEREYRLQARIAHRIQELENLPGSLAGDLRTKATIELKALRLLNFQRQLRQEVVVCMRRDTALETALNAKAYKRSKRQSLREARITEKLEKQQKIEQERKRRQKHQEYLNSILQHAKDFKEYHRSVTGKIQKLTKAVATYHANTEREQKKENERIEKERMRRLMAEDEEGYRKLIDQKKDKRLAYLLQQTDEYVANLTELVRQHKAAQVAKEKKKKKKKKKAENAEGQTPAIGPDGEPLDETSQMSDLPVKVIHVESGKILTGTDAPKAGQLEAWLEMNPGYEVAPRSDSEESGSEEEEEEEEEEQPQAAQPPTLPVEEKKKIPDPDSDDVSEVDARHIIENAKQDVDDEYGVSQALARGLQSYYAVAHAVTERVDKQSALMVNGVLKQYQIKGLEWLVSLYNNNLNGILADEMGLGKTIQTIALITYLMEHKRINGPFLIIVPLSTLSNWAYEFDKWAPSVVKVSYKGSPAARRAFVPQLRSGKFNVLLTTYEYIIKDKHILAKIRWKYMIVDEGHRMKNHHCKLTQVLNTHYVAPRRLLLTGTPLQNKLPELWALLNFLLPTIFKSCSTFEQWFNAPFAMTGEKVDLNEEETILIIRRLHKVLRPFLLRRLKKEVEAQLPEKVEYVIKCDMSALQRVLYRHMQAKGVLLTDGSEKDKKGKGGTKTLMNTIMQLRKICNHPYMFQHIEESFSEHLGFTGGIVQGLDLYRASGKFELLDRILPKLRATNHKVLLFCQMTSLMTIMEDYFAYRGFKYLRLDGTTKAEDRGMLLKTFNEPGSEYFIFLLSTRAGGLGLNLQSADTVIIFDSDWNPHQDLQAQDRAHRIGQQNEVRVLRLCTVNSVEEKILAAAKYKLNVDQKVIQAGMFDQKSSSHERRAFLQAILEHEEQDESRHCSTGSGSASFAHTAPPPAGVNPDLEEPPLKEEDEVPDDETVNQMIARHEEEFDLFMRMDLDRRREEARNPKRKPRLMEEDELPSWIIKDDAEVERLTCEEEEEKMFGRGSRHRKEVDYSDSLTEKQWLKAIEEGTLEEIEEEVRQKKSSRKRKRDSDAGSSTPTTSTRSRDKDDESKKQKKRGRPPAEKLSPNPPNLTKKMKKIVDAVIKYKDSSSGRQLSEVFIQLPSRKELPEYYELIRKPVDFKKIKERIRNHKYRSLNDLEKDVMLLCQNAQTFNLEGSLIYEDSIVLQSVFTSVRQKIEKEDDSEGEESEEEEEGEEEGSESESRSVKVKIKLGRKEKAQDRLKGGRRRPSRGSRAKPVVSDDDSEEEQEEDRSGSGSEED
Conditions: not given
For orientation: ADP-Glo first removes unused ATP, then detects ADP through luciferase.
Take `COC(=O)N1CCC(C#Cc2ccnc(CNC(=O)c3ccc4c(c3)[C@](C)(C#N)COC4)c2)CC1` [Compound 21]: the pIC50 was < 6.00.
In the case of `O=C(NCc1cc(C#Cc2ccccc2)ccn1)c1ccc2c(c1)[C@](F)(C(F)F)COC2` [Compound 48], the pIC50 was < 6.00.
Same read-out and setting: as for `C[C@@]1(F)COCc2ccc(C(=O)NCc3cc4nc(-c5ccccc5)ccc4cn3)cc21` [Compound 86], the figure is < 6.00.
`C[C@@]1(C#N)COCc2ccc(C(=O)NCc3cc4nc(-c5cccc(C#N)c5)ccc4cn3)cc21` [Compound 112]: the negative logarithm of the IC50 (pIC50) is < 6.00.
In the case of `COc1ccc(C)cc1-c1ccc2cnc(CNC(=O)c3ccc4c(c3)[C@](C)(C#N)COC4)cc2n1` [Compound 153], the pIC50 was < 6.00.
As for `C[C@@]1(C#N)COCc2ccc(C(=O)NCc3cc4nc(-c5cccc6c5ccn6C5CC5)ccc4cn3)cc21` [Compound 173], the pIC50 is 6.30 to 7.00.
Molecule `COc1nn(C2CC2(F)F)cc1-c1ccc2cnc(CNC(=O)c3ccc4c(c3)[C@](C)(C#N)COC4)cc2n1` (stereo partly shown) [Compound 140] gave a pIC50 of 6.00 to 6.30.
On the same count and under the same terms, as for `CO[C@@H]1CCN(c2cncc(-c3ccc4cnc(CNC(=O)c5ccc6c(c5)[C@](C)(C#N)COC6)cc4c3)n2)C1` [Compound 366], the figure is > 7.00; as for `C[C@@]1(C#N)COCc2ccc(C(=O)NCc3cc4nc(-c5ccccc5)sc4nn3)cc21` [Compound 242], 6.00 to 6.30; as for `C[C@@]1(C#N)COCc2ccc(C(=O)NCc3cc(OCc4cccc(N5CCC5)n4)ccn3)cc21` [Compound 34], < 6.00.
`C[C@@]1(C#N)COCc2ccc(C(=O)NCc3cc4nc(-c5cncc(N6CC[C@H](F)C6)n5)ccc4cn3)cc21` [Compound 311]: the pIC50 is 6.30 to 7.00.
Same read-out and setting: as for `COCCn1cc(-c2ccc3cnc(CNC(=O)c4ccc5c(c4)[C@](C)(C#N)COC5)cc3n2)c(OC)n1` [Compound 203], the figure is < 6.00; as for `C[C@@]1(C#N)COCc2ccc(C(=O)NCc3cc4nc(-c5cccc(N6CCCC6)n5)ccc4cn3)cc21` [Compound 361], < 6.00.

Staying with this test, now noted: 1 h, read-out: BRG1 Max % Inhibition, ADP-Glo, 30 nM BRG-1, 400 μM ATP.
For `COC(=O)N1CCC(C#Cc2ccnc(CNC(=O)c3ccc4c(c3)[C@](C)(C#N)COC4)c2)CC1` [Compound 21], the Emax was 31%.
On to `O=C(NCc1cc(C#Cc2ccccc2)ccn1)c1ccc2c(c1)[C@](F)(C(F)F)COC2` [Compound 48], for which the Emax amounted to 11%.
In the case of `C[C@@]1(F)COCc2ccc(C(=O)NCc3cc4nc(-c5ccccc5)ccc4cn3)cc21` [Compound 86], the Emax turned out to be 62%.
In the case of `C[C@@]1(C#N)COCc2ccc(C(=O)NCc3cc4nc(-c5cccc(C#N)c5)ccc4cn3)cc21` [Compound 112], the Emax came out at 55%.
`COc1ccc(C)cc1-c1ccc2cnc(CNC(=O)c3ccc4c(c3)[C@](C)(C#N)COC4)cc2n1` [Compound 153]: the Emax stood at 37%.
Consider `C[C@@]1(C#N)COCc2ccc(C(=O)NCc3cc4nc(-c5cccc6c5ccn6C5CC5)ccc4cn3)cc21` [Compound 173], for which the Emax was 94%.
Still for that read-out and setting: as for `COc1nn(C2CC2(F)F)cc1-c1ccc2cnc(CNC(=O)c3ccc4c(c3)[C@](C)(C#N)COC4)cc2n1` (stereo partly shown) [Compound 140], the figure is 48%; as for `CO[C@@H]1CCN(c2cncc(-c3ccc4cnc(CNC(=O)c5ccc6c(c5)[C@](C)(C#N)COC6)cc4c3)n2)C1` [Compound 366], 99%.
For the molecule `C[C@@]1(C#N)COCc2ccc(C(=O)NCc3cc4nc(-c5ccccc5)sc4nn3)cc21` [Compound 242], the Emax came to 51%.
Same read-out and setting: as for `C[C@@]1(C#N)COCc2ccc(C(=O)NCc3cc(OCc4cccc(N5CCC5)n4)ccn3)cc21` [Compound 34], the figure is 53%.
Consider `C[C@@]1(C#N)COCc2ccc(C(=O)NCc3cc4nc(-c5cncc(N6CC[C@H](F)C6)n5)ccc4cn3)cc21` [Compound 311], for which the Emax was 95%.
For the molecule `COCCn1cc(-c2ccc3cnc(CNC(=O)c4ccc5c(c4)[C@](C)(C#N)COC5)cc3n2)c(OC)n1` [Compound 203], the Emax amounted to 26%.
On the same count and under the same terms, as for `C[C@@]1(C#N)COCc2ccc(C(=O)NCc3cc4nc(-c5cccc(N6CCCC6)n5)ccc4cn3)cc21` [Compound 361], the figure is 98%.

The next test concerns the target BRM (Homo sapiens, UniProt P51531). The test is described as follows: ATPase catalytic activity assay (ADP-Glo), BRM. The settings on record: 30 nM BRM, 400 μM ATP.
Protocol: The ATPase catalytic activity of BRM or BRG-1 was measured by an in vitro biochemical assay using ADP-Glo™ (Promega, V9102). The ADP-Glo™ kinase assay is performed in two steps once the reaction is complete. The first step is to deplete any unconsumed ATP in the reaction. The second step is to convert the reaction product ADP to ATP, which will be utilized by the luciferase to generate luminesce and be detected by a luminescence reader, such as Envision.
Then following addition of 5 μL of ADP-Glo™ Reagent provided in the kit, the reaction incubates at room temperature for 40 minutes. Then 10 μL of Kinase Detection Reagent provided in the kit is added to convert ADP to ATP, and the reaction incubates at room temperature for 60 minutes. Finally, luminescence measurement is collected with a plate-reading luminometer, such as Envision.
On to `COC(=O)N1CCC(C#Cc2ccnc(CNC(=O)c3ccc4c(c3)[C@](C)(C#N)COC4)c2)CC1` [Compound 21], for which the “BRM Max % Inhibition” value turned out to be 78%.
As for `O=C(NCc1cc(C#Cc2ccccc2)ccn1)c1ccc2c(c1)[C@](F)(C(F)F)COC2` [Compound 48], the “BRM Max % Inhibition” value is reported as 67%.
As to `C[C@@]1(F)COCc2ccc(C(=O)NCc3cc4nc(-c5ccccc5)ccc4cn3)cc21` [Compound 86], the “BRM Max % Inhibition” value was 96%.
Regarding `C[C@@]1(C#N)COCc2ccc(C(=O)NCc3cc4nc(-c5cccc(C#N)c5)ccc4cn3)cc21` [Compound 112], the “BRM Max % Inhibition” value is 94%.
In the case of `COc1ccc(C)cc1-c1ccc2cnc(CNC(=O)c3ccc4c(c3)[C@](C)(C#N)COC4)cc2n1` [Compound 153], the “BRM Max % Inhibition” value is given as 87%.
As for `C[C@@]1(C#N)COCc2ccc(C(=O)NCc3cc4nc(-c5cccc6c5ccn6C5CC5)ccc4cn3)cc21` [Compound 173], the “BRM Max % Inhibition” value is 98%.
For the molecule `COc1nn(C2CC2(F)F)cc1-c1ccc2cnc(CNC(=O)c3ccc4c(c3)[C@](C)(C#N)COC4)cc2n1` (stereo partly shown) [Compound 140], the “BRM Max % Inhibition” value is 94%.
For `CO[C@@H]1CCN(c2cncc(-c3ccc4cnc(CNC(=O)c5ccc6c(c5)[C@](C)(C#N)COC6)cc4c3)n2)C1` [Compound 366], the “BRM Max % Inhibition” value is 99%.
In the case of `C[C@@]1(C#N)COCc2ccc(C(=O)NCc3cc4nc(-c5ccccc5)sc4nn3)cc21` [Compound 242], the “BRM Max % Inhibition” value was 94%.
For the molecule `C[C@@]1(C#N)COCc2ccc(C(=O)NCc3cc(OCc4cccc(N5CCC5)n4)ccn3)cc21` [Compound 34], the “BRM Max % Inhibition” value is on record as 94%.
As to `C[C@@]1(C#N)COCc2ccc(C(=O)NCc3cc4nc(-c5cncc(N6CC[C@H](F)C6)n5)ccc4cn3)cc21` [Compound 311], the “BRM Max % Inhibition” value was found to be 99%.
The same measure, in the same setting: as for `COCCn1cc(-c2ccc3cnc(CNC(=O)c4ccc5c(c4)[C@](C)(C#N)COC5)cc3n2)c(OC)n1` [Compound 203], the figure is 84%.
As to `C[C@@]1(C#N)COCc2ccc(C(=O)NCc3cc4nc(-c5cccc(N6CCCC6)n5)ccc4cn3)cc21` [Compound 361], the “BRM Max % Inhibition” value is reported as 98%.

Staying with this test, now noted: BRM ATPase: IC50 (uM), 30 nM BRM, 400 μM ATP.
Consider `COC(=O)N1CCC(C#Cc2ccnc(CNC(=O)c3ccc4c(c3)[C@](C)(C#N)COC4)c2)CC1` [Compound 21], for which the IC50 is > 1 µM.
On to `O=C(NCc1cc(C#Cc2ccccc2)ccn1)c1ccc2c(c1)[C@](F)(C(F)F)COC2` [Compound 48], for which the IC50 is > 1 µM.
In turn, `C[C@@]1(F)COCc2ccc(C(=O)NCc3cc4nc(-c5ccccc5)ccc4cn3)cc21` [Compound 86] yielded an IC50 of 0.1 to 0.5 µM.
In turn, `C[C@@]1(C#N)COCc2ccc(C(=O)NCc3cc4nc(-c5cccc(C#N)c5)ccc4cn3)cc21` [Compound 112] came in with an IC50 of 0.1 to 0.5 µM.
In turn, `COc1ccc(C)cc1-c1ccc2cnc(CNC(=O)c3ccc4c(c3)[C@](C)(C#N)COC4)cc2n1` [Compound 153] showed an IC50 of 0.1 to 0.5 µM.
As to `C[C@@]1(C#N)COCc2ccc(C(=O)NCc3cc4nc(-c5cccc6c5ccn6C5CC5)ccc4cn3)cc21` [Compound 173], the IC50 was < 0.1 µM.
Regarding `COc1nn(C2CC2(F)F)cc1-c1ccc2cnc(CNC(=O)c3ccc4c(c3)[C@](C)(C#N)COC4)cc2n1` (stereo partly shown) [Compound 140], the IC50 lay in the range of 0.1 to 0.5 µM.
On the same count and under the same terms, as for `CO[C@@H]1CCN(c2cncc(-c3ccc4cnc(CNC(=O)c5ccc6c(c5)[C@](C)(C#N)COC6)cc4c3)n2)C1` [Compound 366], the figure is < 0.1 µM; as for `C[C@@]1(C#N)COCc2ccc(C(=O)NCc3cc4nc(-c5ccccc5)sc4nn3)cc21` [Compound 242], 0.1 to 0.5 µM.
With `C[C@@]1(C#N)COCc2ccc(C(=O)NCc3cc(OCc4cccc(N5CCC5)n4)ccn3)cc21` [Compound 34], the IC50 was 0.1 to 0.5 µM.
As for `C[C@@]1(C#N)COCc2ccc(C(=O)NCc3cc4nc(-c5cncc(N6CC[C@H](F)C6)n5)ccc4cn3)cc21` [Compound 311], the IC50 is < 0.1 µM.
For `COCCn1cc(-c2ccc3cnc(CNC(=O)c4ccc5c(c4)[C@](C)(C#N)COC5)cc3n2)c(OC)n1` [Compound 203], the IC50 fell in the range of 0.1 to 0.5 µM.
Consider `C[C@@]1(C#N)COCc2ccc(C(=O)NCc3cc4nc(-c5cccc(N6CCCC6)n5)ccc4cn3)cc21` [Compound 361], for which the IC50 was < 0.1 µM.

(Values after patent US12441726B2, “Compounds and uses thereof” (Foghorn Therapeutics Inc., priority 2020, dated 2025).)
